Source: article PMC10605847 (Cancers, 2023)

Columns and labels:
HDAC1 = biological target: T1, HDAC1 (Homo sapiens, UniProt Q13547); test: HDAC1 fluorimetric inhibitory activity assay (Fluor de Lys kit); assay type: biochemical; conditions: read-out: HDAC1-Inhibitory Ability (IC50)
T1 construct: purchased Enzo Life Sciences International, Inc
Protocol: HDAC1-inhibitory activity was determined using the HDAC activity analysis kit by fluorescence measurement (HDAC1 Fluorimetric Drug Discovery Assay Kit A Fluoro de Lys Fluorescent Assay System, Enzo Life Sciences International, Inc., Farmingdale, New York, USA) in accordance with the manufacturer’s instructions. Fluorescence was measured at an excitation wavelength of 360 nm and emission of 460 nm. […] All experiments were carried out in three repetitions.

HeLa cells = test: MTT cell viability, HeLa; conditions: Homo sapiens, 24 h, read-out: IC50 cytotoxic effect, HeLa
Protocol: (§1) For all experiments using cell lines, cells were cultured in a DMEM culture medium with the addition of 10% fetal bovine serum, 2 mM glutamine and 1% penicillin-streptomycin as antibiotics under standard conditions at 37 °C with 5% CO2.
(§2) Cell viability was measured using MTT analysis, as described earlier [48]. In short, 10,000 HeLa and Hek-293 cells per well were placed in sterile 96-well culture plates and cultured under the standard conditions described above for 24 h to adhere. After the time elapsed, the cells were treated with the studied compounds in a concentration range from 0.1 to 100 µM (0.1–1–3–10–30–100) and incubated for 24 h. The control samples contained an equivalent volume of solvent (DMSO < 1%). At the end of incubation, cell viability was measured by adding an MTT solution (the final concentration was 5 mg/mL, DiaM, Moscow, Russia). After 2 h of incubation at 37 °C, the nutrient medium was carefully aspirated and replaced with 200 µL of dimethyl sulfoxide to dissolve the formazane granules. The optical density of the formazane solution was determined using a multifunctional analyzer Cytation™3 (BioTek Instruments, Inc., Winooski, VT, USA) at λ = 530 nm. All experiments were carried out in three repetitions.

[1] = MTT cell viability, Hek-293; conditions: human, Hek-293 cells
Protocol: as §1, §2

PA-1 cells = test: Glycolysis stress test (Seahorse XFe96, ECAR); assay type: cell-based, human; conditions: PA-1, 100 µM
Protocol: In order to achieve a 90–95% monolayer, approximately 40,000 PA-1 cells per well were placed in XF96 cell-culture plates and a glycolysis stress test was performed 24 h later using an XFe96 extracellular flow analyzer (Seahorse Bioscience, North Billerica, MA, USA) by measuring the rate of extracellular medium acidification (ECAR).
Briefly, after the cells were seeded, the plate was placed in an incubator and cultured for 24 h under the standard conditions described above.
After placing the tablet in the analyzer, a step-by-step measurement of the extracellular acidification rate of the medium was performed in response to the sequential addition of modulators: port A—the studied compounds at a concentration of 100 µM, port B—10 mM of glucose (Seahorse Bioscience, North Billerica, MA, USA), port C—1 µM of oligomycin (Sigma Aldrich, St. Louis, MI, USA) and port D—25 mM 2-deoxy-D-glucose (Sigma Aldrich, St. Louis, MI, USA). To ensure the stability of each measurement, three separate readings were taken.
Glycolysis was measured by estimating the difference between the maximum ECAR after glucose injection and the last measurement before glucose addition. Such a parameter of glycolytic function as glycolytic capacity was determined by analyzing the difference between the maximum ECAR after oligomycin injection and the last measurement before glucose addition. Glycolytic reserve was defined as the difference between glycolytic capacity and glycolysis.

HeLa cell line = test: Cisplatin cytotoxicity alone and combined with hydroxamic acids, HeLa (MTT); assay type: cell-based, human; conditions: 5 µM of compound with cisplatin
Protocol: Cell viability was measured using MTT analysis, as described earlier [48]. In short, 10,000 HeLa and Hek-293 cells per well were placed in sterile 96-well culture plates and cultured under the standard conditions described above for 24 h to adhere. After the time elapsed, the cells were treated with the studied compounds in a concentration range from 0.1 to 100 µM (0.1–1–3–10–30–100) and incubated for 24 h. The control samples contained an equivalent volume of solvent (DMSO < 1%). At the end of incubation, cell viability was measured by adding an MTT solution (the final concentration was 5 mg/mL, DiaM, Moscow, Russia). After 2 h of incubation at 37 °C, the nutrient medium was carefully aspirated and replaced with 200 µL of dimethyl sulfoxide to dissolve the formazane granules. The optical density of the formazane solution was determined using a multifunctional analyzer Cytation™3 (BioTek Instruments, Inc., Winooski, VT, USA) at λ = 530 nm. […]
Then, the cells were treated with a combination of increasing doses of cytostatic agents and the test compound with a constant ratio of 1:4, and subsequently, a cell death analysis was performed. The CI values were calculated and plotted using CompuSyn.exe (Biosoft, Ferguson, MO, USA) based on the concentration and effect of each agent and their combinations according to instructions of the software. […]

HeLa/CDDP cells = test: Cisplatin cytotoxicity alone and combined with hydroxamic acids, cisplatin-resistant HeLa/CDDP (MTT); assay type: cell-based, human; conditions: 5 µM hydroxamic acid
Protocol: Cell viability was measured using MTT analysis, as described earlier [48]. In short, 10,000 HeLa and Hek-293 cells per well were placed in sterile 96-well culture plates and cultured under the standard conditions described above for 24 h to adhere. After the time elapsed, the cells were treated with the studied compounds in a concentration range from 0.1 to 100 µM (0.1–1–3–10–30–100) and incubated for 24 h. The control samples contained an equivalent volume of solvent (DMSO < 1%). At the end of incubation, cell viability was measured by adding an MTT solution (the final concentration was 5 mg/mL, DiaM, Moscow, Russia). […] The optical density of the formazane solution was determined using a multifunctional analyzer Cytation™3 (BioTek Instruments, Inc., Winooski, VT, USA) at λ = 530 nm. All experiments were carried out in three repetitions.

in vitro = conditions: human
Protocol: as §1, §2

T1 sequence (Q13547 whole entry): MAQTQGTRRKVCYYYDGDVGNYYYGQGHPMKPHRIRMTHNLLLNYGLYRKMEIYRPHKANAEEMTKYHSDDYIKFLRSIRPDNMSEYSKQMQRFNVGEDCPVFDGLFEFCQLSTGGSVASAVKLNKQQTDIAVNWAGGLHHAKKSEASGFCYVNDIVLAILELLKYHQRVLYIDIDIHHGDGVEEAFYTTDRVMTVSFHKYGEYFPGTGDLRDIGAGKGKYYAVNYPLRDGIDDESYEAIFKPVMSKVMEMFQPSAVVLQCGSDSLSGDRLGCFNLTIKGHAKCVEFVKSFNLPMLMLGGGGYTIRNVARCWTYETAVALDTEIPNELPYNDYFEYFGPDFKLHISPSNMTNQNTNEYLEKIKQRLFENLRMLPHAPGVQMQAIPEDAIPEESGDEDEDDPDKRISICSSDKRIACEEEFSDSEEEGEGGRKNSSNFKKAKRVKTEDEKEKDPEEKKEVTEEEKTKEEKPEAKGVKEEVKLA

| Structure (SMILES) | IC50 (HDAC1) | melting point | IC50 (HeLa cells) | IC50 at 24 h [1] | inhibition at 100 µM (PA-1 cells; Homo sapiens, vs. control, read-out: inhibition of glycolytic reserve (ECAR)) | glycolytic capacity (maximum ECAR after oligomycin injection) (PA-1 cells; p < 0.0001 vs. control) | reduction of glycolysis (ECAR) (PA-1 cells; vs. control) | decrease in the value of cisplatin IC50 (HeLa cell line) | fold decrease in the IC50 of cisplatin (HeLa/CDDP cells) | IC50 at 24 h (in vitro) |
| --- | --- | --- | --- | --- | --- | --- | --- | --- | --- | --- |
| CC1(C)C2CC=C(CNC(=O)/C=C/c3ccc(C(=O)NO)cc3)[C@@H]1C2 [18a, 4-((E)-3-((((1R)-6,6-Dimethylbicyclo[3.1.1]hept-2-en-2-yl)methyl)amino)-3-oxoprop-1-en-1-yl)-N-hydroxybenzamide] | 6.9 ± 0.03 µM | 96.5 °C | 29.2 ± 1.06 µM | 46.7 ± 2.93 µM | – | – | – | – | – | – |
| CC1(C)C2CC=C(CNC(=O)/C=C/c3ccc(C(=O)NO)cc3)[C@H]1C2 [18b, 4-((E)-3-((((1S)-6,6-Dimethylbicyclo[3.1.1]hept-2-en-2-yl)methyl)amino)-3-oxoprop-1-en-1-yl)-N-hydroxybenzamide] | 7.96 ± 0.28 µM | – | 43.6 ± 1.02 µM | 38.9 ± 1.24 µM | – | – | – | – | – | – |
| CC1(C)C2CC=C(CCNC(=O)/C=C/c3ccc(C(=O)NO)cc3)[C@@H]1C2 [18c, 4-((E)-3-((2-((1R)-6,6-Dimethylbicyclo[3.1.1]hept-2-en-2-yl)ethyl)amino)-3-oxoprop-1-en-1-yl)-N-hydroxybenzamide] | 4.45 ± 0.3 µM | – | 33.8 ± 1.19 µM | 34 ± 3.04 µM | 86% | significantly lower | 26.6% | 34.50% | approximately 2.02 fold | – |
| CC1(C)C2CC=C(CNC(=O)c3ccc(/C=C/C(=O)NO)cc3)[C@@H]1C2 [21a, N-(((1R)-6,6-Dimethylbicyclo[3.1.1]hept-2-en-2-yl)methyl)-4-((E)-3-(hydroxyamino)-3-oxoprop-1-en-1-yl)benzamide] | 7.23 ± 0.46 µM | 74.6 °C | 18 ± 0.47 µM | – | – | – | – | – | – | 21.2 ± 1.66 µM |
| CC1(C)C2CC=C(CNC(=O)c3ccc(/C=C/C(=O)NO)cc3)[C@H]1C2 [21b, N-(((1S)-6,6-Dimethylbicyclo[3.1.1]hept-2-en-2-yl)methyl)-4-((E)-3-(hydroxyamino)-3-oxoprop-1-en-1-yl)benzamide] | 8.2 ± 0.49 µM | – | 42.8 ± 1.28 µM | – | – | – | – | – | – | 37.2 ± 1.89 µM |
| CC1(C)C2CC=C(CCNC(=O)c3ccc(/C=C/C(=O)NO)cc3)[C@@H]1C2 [21c, N-(2-((1R)-6,6-Dimethylbicyclo [3.1.1]hept-2-en-2-yl)ethyl)-4-((E)-3-(hydroxyamino)-3-oxoprop-1-en-1-yl)benzamide] | 5 ± 0.12 µM | 132.5 to 132.6 °C | 19.1 ± 0.96 µM | 33.9 ± 2.59 µM | – | – | – | – | – | – |
| CC(/C=C/C(=O)NO)=C\[C@@H](C)C(=O)c1ccc(N(C)C)cc1 [Trichostatin A, reference compound] | – | – | 0.38 ± 0.02 µM | 0.22 ± 0.01 µM | – | – | – | – | – | – |
